Here are results for one substance from patent US20100009950A1, “SUBSTITUTED ETHANOLAMINES” (AUSPEX PHARMACEUTICALS, INC., priority 2008, published 2010).

For this data set the following is noted: mark in second data column (bin 0%-50%); 1 mg per mL liver microsome protein, 1 μM, 37° C.; vs non-isotopically enriched compound. For orientation: Liver microsomes are vesicles of endoplasmic reticulum, rich in cytochrome P450 enzymes.

On to “N-(2-Hydroxy-2-(4-hydroxy-3-(hydroxymethyl)phenyl)ethyl)-6-(4-d3-phenyl-d8-butoxy)hexan-1-d2-aminium 1-hydroxy-2-naphthoate [Example 5]”, for which the “% increase of HLM degradation half-life” value is listed as “+ (0%-50%)”.
